Measured values: patent US20140212981A1, “METHODS AND SYSTEMS FOR DETERMINING THE AMOUNT OF THIOPURINE METABOLITES IN A SAMPLE” (Laboratory Corporation of America Holdings, priority 2012, published 2014)

How the values were obtained:
[1] = Acid-promoted conversion (hydrolysis) as a function of time; type: physicochemical; settings: FIG. 2C
Excerpt: The method comprises converting the one or more 6-thioguanine nucleotide compounds to 6-thioguanine or a 6-thioguanine hydrolysis product. The converting can be carried out in any manner known to those of skill in the art. In some embodiments, the converting comprises contacting the one or more 6-thioguanine nucleotide compounds with a sulfur-containing reducing agent to yield one or more reduced 6-thioguanine nucleotide compounds. Any suitable sulfur-containing reducing agent can be used. In some embodiments, the sulfur-containing reducing agent is dithioerythritol. In some such embodiments, the method comprises contacting the one or more reduced 6-thioguanine nucleotide compounds with an acidic hydrolyzing agent. Any suitable acidic hydrolyzing agent can be used. In some embodiments, the acidic hydrolyzing agent is perchloric acid, nitric acid, sulfuric acid, or a combination thereof. In some such embodiments, the acidic hydrolyzing agent is perchloric acid.
In some embodiments the hydrolysis of 6-methylmercaptopurine nucleotide compounds proceeds according to Scheme 2 below. […] The 6-methylmercaptopurine is readily hydrolyzed in the presence of acid to form a 6-methylmercaptopurine hydrolysis product comprising 4-amino-5-(methylthio) carbonyl imidazole. […]

[2] = cited from earlier work; for Therapeutic Range: metabolite level in red blood cells of subjects on thiopurine treatment, exemplary therapeutic levels

CSc1ncnc2nc[nH]c12 [6-MMP, 6-methylmercaptopurine]
Time for acid-promoted conversion to hydrolysis product ([1]; 6-MMP to 6-MMP*, perchloric acid hydrolysis): less than 140 minutes

6-methylmercaptopurine nucleotides [6-MMPNs]
Therapeutic Range [2]: <5700 pmol/8 × 10^8RBC
Alert Values ([2]; metabolite level in red blood cells, levels in this range require modulation of therapy): >5700 pmol/8 × 10^8RBC

[2H]C([2H])([2H])Sc1ncnc2[nH]cnc12 [D3-6-MMP]
Rate of acid-promoted conversion relative to unlabeled 6-MMP ([1]; D3-6-MMP to D3-6-MMP*): same rate as unlabeled 6-MMP

6-thioguanine nucleotides [6-TGNs]
Therapeutic Range [2]: 235 - 450 pmol/8 × 10^8RBC
